The text below walks through data of PMC10118193, “Biochemical characterization of a GDP-mannose transporter from Chaetomium thermophilum” (PLOS ONE, 2023).

Assay [1] concerns the target T1, CtVrg4 (Vrg4 from Chaetomium thermophilum) (Thermochaetoides thermophila, UniProt G0S534, Y310F).
T1 construct: gene CTHT_0023930; full length, 385 residues, N-terminal 12-His tag, about 37 kDa, expressed in S. cerevisiae FGY217, purified in DDM
Briefly: thermal shift titration (Tycho NT.[…]). Format: binding.

Assay [2] addresses T2, CtVrg4 (Vrg4 from Chaetomium thermophilum) (Thermochaetoides thermophila, UniProt G0S534).
T2 construct: gene CTHT_0023930; full length, 385 residues, N-terminal 12-His tag, about 37 kDa, expressed in S. cerevisiae FGY217, purified in DDM
Description: thermal shift titration (Tycho NT.[…]). The class given is binding.

Assay [3] deals with T3, CtVrg4Δ31 (Thermochaetoides thermophila, UniProt G0S534).
T3 construct: gene CTHT_0023930; C-terminal truncation lacking the last 31 residues (Golgi retrieval signal), residues 1-354, N-terminal 12-His tag, expressed in S. cerevisiae FGY217, purified in DDM
Briefly: thermal shift titration (Tycho NT.[…]). The class given is binding.

Assay [4] deals with T2, CtVrg4 (Vrg4 from Chaetomium thermophilum). Description: competition of [3H]GMP uptake into proteoliposomes. The class given is biochemical.
The target in assay [5] is T1, CtVrg4 (Vrg4 from Chaetomium thermophilum). Briefly: competition of [3H]GMP uptake into proteoliposomes. The class given is biochemical.
For assay [6], the target named is T3, CtVrg4Δ31. Description: competition of [3H]GMP uptake into proteoliposomes. The class given is biochemical.
In assay [7] the target is T4, Chymotrypsin-cleaved CtVrg4 (cCtVrg4) (Thermochaetoides thermophila, UniProt G0S534).
T4 construct: gene CTHT_0023930; full-length His-tagged protein cut by chymotrypsin (50:1, 2 h, 18 °C); crystals of cleaved protein ~25 kDa
Description: exchange of internal GDP-mannose with external [3H]GMP in proteoliposomes. The class given is biochemical. The settings on record: yeast polar lipid proteoliposomes; internal GDP-mannose 1-1000 μM; 0.384 μM external [3H]GMP; room temperature, 10 min.

T2 sequence (G0S534 entry or part of it): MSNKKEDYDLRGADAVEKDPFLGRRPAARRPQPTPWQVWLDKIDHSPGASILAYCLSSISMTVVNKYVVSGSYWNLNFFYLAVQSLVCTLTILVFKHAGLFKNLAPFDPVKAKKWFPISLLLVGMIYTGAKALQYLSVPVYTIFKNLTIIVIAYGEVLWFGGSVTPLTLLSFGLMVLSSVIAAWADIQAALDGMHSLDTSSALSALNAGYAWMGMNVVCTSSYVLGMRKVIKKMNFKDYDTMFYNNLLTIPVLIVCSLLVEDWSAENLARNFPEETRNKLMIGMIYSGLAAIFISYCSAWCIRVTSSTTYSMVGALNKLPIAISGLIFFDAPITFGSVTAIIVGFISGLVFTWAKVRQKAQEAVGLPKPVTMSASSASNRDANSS
T3 sequence (G0S534 entry or part of it, stated change not applied): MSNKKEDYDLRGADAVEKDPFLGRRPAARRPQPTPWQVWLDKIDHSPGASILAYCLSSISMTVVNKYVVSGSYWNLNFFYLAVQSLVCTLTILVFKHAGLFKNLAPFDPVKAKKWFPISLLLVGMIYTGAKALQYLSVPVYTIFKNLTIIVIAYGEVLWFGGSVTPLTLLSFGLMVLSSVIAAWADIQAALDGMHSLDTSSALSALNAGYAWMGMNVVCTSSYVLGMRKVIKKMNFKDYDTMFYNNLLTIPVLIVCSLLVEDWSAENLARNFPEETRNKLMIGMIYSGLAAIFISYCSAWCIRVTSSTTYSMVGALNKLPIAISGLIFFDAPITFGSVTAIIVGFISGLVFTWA
T1 sequence (G0S534 entry or part of it Y310F): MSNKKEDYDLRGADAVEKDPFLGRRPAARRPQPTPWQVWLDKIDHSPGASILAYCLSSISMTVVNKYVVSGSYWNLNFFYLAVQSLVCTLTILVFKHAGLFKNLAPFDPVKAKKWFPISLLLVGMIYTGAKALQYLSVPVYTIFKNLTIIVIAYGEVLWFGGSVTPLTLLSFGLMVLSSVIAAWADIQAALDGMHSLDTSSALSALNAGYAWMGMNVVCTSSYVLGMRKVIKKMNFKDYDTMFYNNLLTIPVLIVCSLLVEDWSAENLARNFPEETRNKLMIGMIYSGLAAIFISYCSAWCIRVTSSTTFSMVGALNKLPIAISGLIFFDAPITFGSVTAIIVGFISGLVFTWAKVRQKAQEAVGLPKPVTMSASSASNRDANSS
T4 sequence (G0S534 entry or part of it): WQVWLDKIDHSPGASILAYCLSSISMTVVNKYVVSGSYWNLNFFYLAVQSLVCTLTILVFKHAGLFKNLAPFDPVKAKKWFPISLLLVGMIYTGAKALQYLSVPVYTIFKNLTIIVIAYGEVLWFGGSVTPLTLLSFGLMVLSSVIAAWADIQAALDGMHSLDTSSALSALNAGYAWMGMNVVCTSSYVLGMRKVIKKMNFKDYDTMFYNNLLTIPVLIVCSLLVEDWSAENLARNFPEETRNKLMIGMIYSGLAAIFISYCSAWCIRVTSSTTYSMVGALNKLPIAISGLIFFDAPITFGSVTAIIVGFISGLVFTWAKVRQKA

For the compound `Nc1nc2c(ncn2[C@@H]2O[C@H](COP(=O)(O)O)[C@@H](O)[C@H]2O)c(=O)[nH]1` [GMP], the Kd is 139 µM in assay [1], 143 µM in assay [2] and 63.2 µM at CtVrg4Δ31 [3].
Turning to `Nc1nc2c(ncn2[C@@H]2O[C@H](COP(=O)(O)OP(=O)(O)O[C@H]3O[C@H](CO)[C@@H](O)[C@H](O)[C@@H]3O)[C@@H](O)[C@H]2O)c(=O)[nH]1` [GDP-mannose], the Kd in assay [1] stood at 130 µM; in assay [2] it was 74.3 µM; on CtVrg4Δ31 [3] it was 58.5 µM. The 50% inhibitory concentration (IC50) in assay [4] stood at 25.5 µM; in assay [5] it was 47.1 µM; on CtVrg4Δ31 [6] it was 48 µM. Further, the Km in assay [7] was determined as 32.1 µM.
